14 compounds from ChEMBL document CHEMBL2150992, “Synthesis of quinoline derivatives for fluorescent imaging certain bacteria” (Bioorg Med Chem Lett, 2012) can be followed below.

Common to all, as to type: functional, organism-based
The test system of assay [1] is Staphylococcus aureus. The assay is described as follows: Binding affinity to Staphylococcus aureus at 0.0781 mM after 10 mins by fluorescence microscopy.
In assay [2] the test system is Bacillus subtilis. The experiment in a line: Binding affinity to Bacillus subtilis at 0.0781 mM after 10 mins by fluorescence microscopy.
The subject of assay [3] is Escherichia coli. The assay is described as follows: Binding affinity to Escherichia coli at 0.0781 mM after 10 mins by fluorescence microscopy.
In assay [4] the test system is Bacillus subtilis. The experiment in a line: Binding affinity to Bacillus subtilis at 0.0781 mM after 1 day by fluorescence microscopy.
Assay [5] has as its system Escherichia coli. The assay is described as follows: Binding affinity to Escherichia coli at 0.0781 mM after 1 day by fluorescence microscopy.
The subject of assay [6] is Staphylococcus aureus. The experiment in a line: Binding affinity to Staphylococcus aureus at 0.0781 mM after 1 day by fluorescence microscopy.

Structures are written as SMILES. The source made the active and inactive calls. The calls are words filed in the database; no cut-off is given here.

Turning to `O=C1CCCN1[C@H]1C[C@@H](c2cc3ccccc3c3ccccc23)Nc2ccc(Br)cc21` (relative stereo), the result in the assay with Staphylococcus aureus [1] and in the assay with Bacillus subtilis [2] was inactive. Further, the result with Escherichia coli [3] was Active.

Regarding `O=C1CCCN1c1cc(-c2cc3ccccc3c3ccccc23)nc2ccc(Cl)cc12`, the result in the assay on Bacillus subtilis [4], in the assay on Escherichia coli [5], in the assay on Staphylococcus aureus [1], in the assay with Bacillus subtilis [2], with Staphylococcus aureus [6] and in the assay on Escherichia coli [3] was Active.

Take `c1ccc2c(c1)N[C@H](c1cc3ccccc3c3ccccc13)C1CCCOC21` (stereo not given in full): in the assay on Staphylococcus aureus [1], the result was Active. Also, the result in the assay with Bacillus subtilis [2] and with Escherichia coli [3] was inactive.

In the case of `c1ccc2c(c1)N[C@@H](c1cc3ccccc3c3ccccc13)C1CCCOC21` (stereo not given in full), in the assay on Staphylococcus aureus [1], the outcome was Active. In addition, the outcome with Bacillus subtilis [2] and with Escherichia coli [3] was inactive.

As to `COc1ccc2nc(-c3cc4ccccc4c4ccccc34)cc(N3CCCC3=O)c2c1`, the result in the assay on Bacillus subtilis [4], in the assay with Escherichia coli [5], in the assay on Bacillus subtilis [2], in the assay with Staphylococcus aureus [6] and with Escherichia coli [3] was Active. In addition, the outcome in the assay with Staphylococcus aureus [1] was inactive.

Consider `CCCCc1ccc2c(c1)[C@@H](N1CCCC1=O)C[C@@H](c1cc3ccccc3c3ccccc13)N2` (relative stereo), for which the result in the assay on Staphylococcus aureus [1] was Active. In addition, the outcome with Bacillus subtilis [2] and with Escherichia coli [3] was inactive.

Consider `N#Cc1ccc2nc(-c3cc4ccccc4c4ccccc34)cc(N3CCCC3=O)c2c1`, for which the outcome in the assay on Bacillus subtilis [4], with Escherichia coli [5], with Staphylococcus aureus [1], with Bacillus subtilis [2], in the assay with Staphylococcus aureus [6] and with Escherichia coli [3] was Active.

In the case of `COc1ccc2c(c1)[C@@H](N1CCCC1=O)C[C@@H](c1cc3ccccc3c3ccccc13)N2` (relative stereo), the result in the assay with Staphylococcus aureus [1], in the assay on Bacillus subtilis [2] and in the assay on Escherichia coli [3] was Active.

For the compound `N#Cc1ccc2c(c1)[C@@H](N1CCCC1=O)C[C@@H](c1cc3ccccc3c3ccccc13)N2` (mixture of isomers), the result in the assay with Staphylococcus aureus [1] and in the assay on Bacillus subtilis [2] was Active. In addition, the outcome with Escherichia coli [3] was inactive.

On to `O=C1CCCN1c1cc(-c2cc3ccccc3c3ccccc23)nc2ccc(Br)cc12`, for which the outcome with Bacillus subtilis [4], in the assay with Escherichia coli [5], in the assay on Staphylococcus aureus [1], in the assay on Bacillus subtilis [2] and in the assay with Staphylococcus aureus [6] was Active. Also, in the assay with Escherichia coli [3], the result was inactive.

With `O=C1CCCN1c1cc(-c2cc3ccccc3c3ccccc23)nc2ccccc12`, the outcome in the assay on Bacillus subtilis [4], in the assay with Escherichia coli [5], with Staphylococcus aureus [1], in the assay on Bacillus subtilis [2], in the assay on Staphylococcus aureus [6] and in the assay with Escherichia coli [3] was Active.

Take `O=C1CCCN1[C@H]1C[C@@H](c2cc3ccccc3c3ccccc23)Nc2ccccc21` (relative stereo): the outcome in the assay on Staphylococcus aureus [1] and in the assay with Bacillus subtilis [2] was Active. Further, in the assay with Escherichia coli [3], the result was inactive.

`O=C1CCCN1[C@H]1C[C@@H](c2cc3ccccc3c3ccccc23)Nc2ccc(Cl)cc21` (relative stereo): the result in the assay with Staphylococcus aureus [1] and in the assay on Escherichia coli [3] was inactive. Besides, the outcome in the assay on Bacillus subtilis [2] was Active.

As for `CCCCc1ccc2nc(-c3cc4ccccc4c4ccccc34)cc(N3CCCC3=O)c2c1`, the result in the assay on Bacillus subtilis [4], with Escherichia coli [5], with Staphylococcus aureus [1], in the assay on Bacillus subtilis [2] and with Staphylococcus aureus [6] was Active. Further, the result in the assay on Escherichia coli [3] was inactive.
